In patent US20150342954A1, “2-BENZYL, 3-(PYRIMIDIN-2-YL) SUBSTITUTED PYRAZOLES USEFUL AS SGC STIMULATORS” (IRONWOOD PHARMACEUTICALS, INC., priority 2011, published 2015):
Read-outs that look alike come from different tables or passages of the source.

What was measured:
[1] = molecular target: T1, Human soluble guanylate cyclase enzyme (hsGC) (Homo sapiens, UniProt Q02108+Q02153); assay: Purified human sGC enzyme synergy assay in the presence of 1 μM sodium nitroprusside (SNP); type: biochemical; settings: compound at 30 μM, presence of 1 μM SNP; Table 5A
T1 construct: purchased Enzo Inc. ALX-201-177
T1 sequence (Q02153 1-619): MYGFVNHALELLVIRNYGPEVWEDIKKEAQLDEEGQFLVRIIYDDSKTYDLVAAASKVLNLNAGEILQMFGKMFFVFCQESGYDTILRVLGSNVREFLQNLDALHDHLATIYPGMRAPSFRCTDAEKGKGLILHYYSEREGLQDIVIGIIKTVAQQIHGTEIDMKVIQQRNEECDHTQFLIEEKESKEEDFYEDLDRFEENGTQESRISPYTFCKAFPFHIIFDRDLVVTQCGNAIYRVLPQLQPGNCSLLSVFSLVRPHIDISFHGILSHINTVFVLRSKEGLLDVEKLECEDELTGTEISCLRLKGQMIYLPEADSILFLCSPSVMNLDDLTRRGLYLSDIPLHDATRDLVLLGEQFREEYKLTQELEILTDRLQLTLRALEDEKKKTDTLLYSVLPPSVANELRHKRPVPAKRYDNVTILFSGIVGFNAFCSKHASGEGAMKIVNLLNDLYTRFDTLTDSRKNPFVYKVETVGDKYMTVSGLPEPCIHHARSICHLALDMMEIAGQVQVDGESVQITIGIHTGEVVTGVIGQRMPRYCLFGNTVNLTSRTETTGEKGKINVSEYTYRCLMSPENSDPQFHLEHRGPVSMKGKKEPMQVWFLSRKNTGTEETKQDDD
T1 sequence (Q02108 1-690): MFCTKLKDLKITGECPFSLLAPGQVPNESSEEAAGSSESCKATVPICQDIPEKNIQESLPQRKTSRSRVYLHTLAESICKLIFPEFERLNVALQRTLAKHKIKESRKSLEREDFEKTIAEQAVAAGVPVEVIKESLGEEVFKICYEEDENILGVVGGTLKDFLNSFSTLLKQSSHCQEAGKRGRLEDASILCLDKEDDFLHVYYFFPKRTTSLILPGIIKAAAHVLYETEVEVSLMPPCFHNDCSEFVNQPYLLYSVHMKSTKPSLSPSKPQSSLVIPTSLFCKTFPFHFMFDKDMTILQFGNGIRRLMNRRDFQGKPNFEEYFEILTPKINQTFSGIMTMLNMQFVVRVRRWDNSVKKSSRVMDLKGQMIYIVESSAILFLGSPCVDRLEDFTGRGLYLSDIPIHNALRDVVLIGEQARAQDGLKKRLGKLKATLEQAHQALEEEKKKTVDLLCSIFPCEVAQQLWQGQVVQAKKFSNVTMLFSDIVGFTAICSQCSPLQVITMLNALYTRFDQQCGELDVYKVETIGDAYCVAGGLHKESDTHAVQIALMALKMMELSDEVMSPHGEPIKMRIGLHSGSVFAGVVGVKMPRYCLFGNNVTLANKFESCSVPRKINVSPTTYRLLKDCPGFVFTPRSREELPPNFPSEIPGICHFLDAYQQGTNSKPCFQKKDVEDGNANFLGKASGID
Summary of the method: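 Purified hsGC (5 ng) incubated 30 min at 37 °C with compound (10 or 30 μM final) in Tris pH 8.0, 300 μM GTP, 1 mM IBMX, 2 mM MgCl2, with or without 1 μM SNP; stopped with cold methanol. cGMP quantified against standard curve; specific activity expressed as fold-change over DMSO control.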

[2] = molecular target: T2, soluble guanylate cyclase (sGC) (Homo sapiens, UniProt Q02108+Q02153); assay: sGC-HEK-cGMP assay (run with SNP incubation); type: cell-based; settings: for Emax: Table 3A, 10 μM SNP, 100% = 30 μM BAY 41-2272 with 10 μM SNP, read-out: HEK assay Emax-unconstrained (Percent); for HEK MEC-10: concentration that would elicit 10% of the Emax in the presence of 10 μM SNP; for HEK MEC-10 / EC50: Table 3D; for EC50: in the presence of 10 μM SNP
T2 construct: endogenously expressing soluble guanylate cyclase (sGC); endogenous in cells; host or cells: HEK293
T2 sequence (Q02153 1-619): T1 sequence (Q02153 1-619)
T2 sequence (Q02108 1-690): T1 sequence (Q02108 1-690)
Summary of the method: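 HEK293 cells with endogenous sGC were pre-treated 15 min at 37 °C with 0.5 mM IBMX, then exposed to test compound plus sodium nitroprusside for 10 min at 37 °C. Cells were lysed in 0.1 M HCl (4 °C, 30 min), and cGMP was quantified by LC/MS against a standard curve. EC50 values came from concentration-response curves.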

[3] = top of concentration-response curve not fitted to 100%
[4] = top of concentration-response curve not fitted to 100%, read-out: HEK assay EC50-unconstrained

Enzyme Activity (increase at 30 μM with SNP) [1] | Emax [2, 3] | HEK MEC-10 [2] | EC50 ([2]; read-out: HEK assay EC50) | EC50 [2, 4] | Compound
D (10 or <20 fold increase) | 80 to 100% | C (0.1 to <1 μM) | < 20 µM | 0.01 to 0.5 µM | Nc1nc(-c2cc(-c3ccon3)n(Cc3cccc(F)c3F)n2)ncc1NC(=O)C1(C(F)(F)F)CC1 [Compound 40]
E (20 to 30 fold increase) | 80 to 100% | A (0.001 to <0.01 μM) | < 20 µM | 0.01 to 0.5 µM | Nc1nc(-c2cc(-c3ccon3)n(Cc3ccccc3F)n2)ncc1NC(=O)C1(F)CC1 [Compound 35]
D (10 or <20 fold increase) | 80 to 100% | B (0.01 to <0.1 μM) | < 20 µM | 0.01 to 0.5 µM | Nc1nc(-c2cc(-c3ccon3)n(Cc3ccccc3F)n2)ncc1NC(=O)C1(c2ccccc2)CC1 [Compound 27]
